ChEMBL document CHEMBL4308841, “Synthesis, in vitro antiproliferative activity, and kinase inhibitory effects of pyrazole-containing diarylureas and diarylamides” (Eur J Med Chem, 2018)

Columns and labels:
MCF7 = assay: Growth inhibition of human MCF7 cells assessed as cell growth at 1 uM incubated for 48 hrs by sulforhodamine B assay relative to control; assay type: functional; conditions: MCF7, 48 h, read-out: Activity
ACHN = assay: Growth inhibition of human ACHN cells assessed as cell growth at 1 uM incubated for 48 hrs by sulforhodamine B assay relative to control; assay type: functional; conditions: read-out: Activity
RXF 393 [1] = assay: Growth inhibition of human RXF393 cells assessed as cell growth at 0.1 uM incubated for 48 hrs by sulforhodamine B assay relative to control; assay type: functional; conditions: RXF 393, 48 h, read-out: Activity
SR = assay: Growth inhibition of human SR cells incubated for 48 hrs by sulforhodamine B assay; assay type: functional, cell-based
UACC-257 = assay: Growth inhibition of human UACC257 cells assessed as cell growth at 0.01 uM incubated for 48 hrs by sulforhodamine B assay relative to control; assay type: functional; conditions: UACC-257, 48 h, read-out: Activity
M14 = assay: Growth inhibition of human M14 cells incubated for 48 hrs by sulforhodamine B assay; assay type: functional, cell-based; conditions: M14, 48 h
MOLT-4 = assay: Growth inhibition of human MOLT4 cells assessed as cell growth at 1 uM incubated for 48 hrs by sulforhodamine B assay relative to control; assay type: functional; conditions: MOLT-4, 48 h, read-out: Activity
SW-620 = assay: Growth inhibition of human SW620 cells assessed as cell growth at 0.01 uM incubated for 48 hrs by sulforhodamine B assay relative to control; assay type: functional; conditions: SW-620, 48 h, read-out: Activity
NCI-H460 = assay: Growth inhibition of human NCI-H460 cells incubated for 48 hrs by sulforhodamine B assay; assay type: functional, cell-based; conditions: NCI-H460, 48 h
BT-549 [2] = assay: Growth inhibition of human BT549 cells assessed as cell growth at 1 uM incubated for 48 hrs by sulforhodamine B assay relative to control; assay type: functional; conditions: BT-549, 48 h, read-out: Activity
RPMI-8226 = assay: Growth inhibition of human RPMI8226 cells assessed as cell growth at 1 uM incubated for 48 hrs by sulforhodamine B assay relative to control; assay type: functional; conditions: RPMI-8226, 48 h, read-out: Activity
CCRF-CEM = assay: Growth inhibition of human CCRF-CEM cells assessed as cell growth at 100 uM incubated for 48 hrs by sulforhodamine B assay relative to control; assay type: functional; conditions: read-out: Activity
786-0 [3] = assay: Growth inhibition of human 786-0 cells assessed as cell growth at 0.01 uM incubated for 48 hrs by sulforhodamine B assay relative to control; assay type: functional; conditions: 786-0, 48 h, read-out: Activity
A498 [4] = assay: Growth inhibition of human A498 cells assessed as cell growth at 0.1 uM incubated for 48 hrs by sulforhodamine B assay relative to control; assay type: functional; conditions: A498, 48 h, read-out: Activity
HCT-116 = assay: Growth inhibition of human HCT116 cells assessed as cell growth at 1 uM incubated for 48 hrs by sulforhodamine B assay relative to control; assay type: functional; conditions: HCT-116, 48 h, read-out: Activity
OVCAR-3 = assay: Growth inhibition of human OVCAR3 cells incubated for 48 hrs by sulforhodamine B assay; assay type: functional, cell-based; conditions: OVCAR-3, 48 h
MDA-MB-468 = assay: Growth inhibition of human MDA-MB-468 cells assessed as cell growth at 0.01 uM incubated for 48 hrs by sulforhodamine B assay relative to control; assay type: functional; conditions: MDA-MB-468, 48 h, read-out: Activity
IGROV-1 = assay: Growth inhibition of human IGROV1 cells incubated for 48 hrs by sulforhodamine B assay; assay type: functional, cell-based; conditions: IGROV-1, 48 h
BT-549 [5] = assay: Growth inhibition of human BT549 cells assessed as cell growth at 0.01 uM incubated for 48 hrs by sulforhodamine B assay relative to control; assay type: functional; conditions: BT-549, 48 h, read-out: Activity
RXF 393 [6] = assay: Growth inhibition of human RXF393 cells assessed as cell growth at 1 uM incubated for 48 hrs by sulforhodamine B assay relative to control; assay type: functional; conditions: RXF 393, 48 h, read-out: Activity
SF-539 = assay: Growth inhibition of human SF539 cells assessed as cell growth at 1 uM incubated for 48 hrs by sulforhodamine B assay relative to control; assay type: functional; conditions: SF-539, 48 h, read-out: Activity
NCI/ADR-RES = assay: Growth inhibition of human NCI/ADR-RES cells incubated for 48 hrs by sulforhodamine B assay; assay type: functional, cell-based
HCC 2998 = assay: Growth inhibition of human HCC2998 cells assessed as cell growth at 100 uM incubated for 48 hrs by sulforhodamine B assay relative to control; assay type: functional; conditions: HCC 2998, 48 h, read-out: Activity
PC-3 = assay: Growth inhibition of human PC3 cells incubated for 48 hrs by sulforhodamine B assay; assay type: functional, cell-based; conditions: PC-3, 48 h
A498 [7] = assay: Growth inhibition of human A498 cells incubated for 48 hrs by sulforhodamine B assay; assay type: functional, cell-based; conditions: A498, 48 h
SN12C = assay: Growth inhibition of human SN12C cells assessed as cell growth at 100 uM incubated for 48 hrs by sulforhodamine B assay relative to control; assay type: functional; conditions: read-out: Activity
786-0 [8] = assay: Growth inhibition of human 786-0 cells incubated for 48 hrs by sulforhodamine B assay; assay type: functional, cell-based; conditions: 786-0, 48 h
[9] = read-out: LC50 (the source's name)
[10] = read-out: pLC50 (the source's name) (converted)

O=C(Nc1cccc(-n2cc(-c3ccncc3)c(-c3cc(O)cc(Cl)c3)n2)c1)c1cc(C(F)(F)F)cc(C(F)(F)F)c1
growth at 1 µM (MCF7): 54% | growth at 1 µM (ACHN): 99% | growth at 0.1 µM (RXF 393 [1]): 94% | GI50 (SR; read-out: GI50): 1.51 µM | CC50 (SR; [9]): > 100 µM | TGI (SR; read-out: TGI): 50.1 µM | GI50 (SR; read-out: pGI50 (converted)): 1.62 µM | CC50 (SR; [10]): > 100 µM | TGI (SR; read-out: pTGI (converted)): 5.01 µM | growth at 0.01 µM (UACC-257): 92% | GI50 (M14; read-out: GI50): 3.01 µM | CC50 (M14; [9]): > 100 µM | TGI (M14; read-out: TGI): > 100 µM | GI50 (M14; read-out: pGI50 (converted)): 3.02 µM | CC50 (M14; [10]): > 100 µM | TGI (M14; read-out: pTGI (converted)): > 100 µM | growth at 1 µM (MOLT-4): 78% | growth at 0.01 µM (SW-620): 99% | GI50 (NCI-H460; read-out: GI50): 3.04 µM | CC50 (NCI-H460; [9]): > 100 µM | TGI (NCI-H460; read-out: TGI): > 100 µM | GI50 (NCI-H460; read-out: pGI50 (converted)): 3.02 µM | CC50 (NCI-H460; [10]): > 100 µM | TGI (NCI-H460; read-out: pTGI (converted)): > 100 µM | growth at 1 µM (BT-549 [2]): 101% | growth at 1 µM (RPMI-8226): 53% | growth at 100 µM (CCRF-CEM): 1% | growth at 0.01 µM (786-0 [3]): 94% | growth at 0.1 µM (A498 [4]): 87% | growth at 1 µM (HCT-116): 59% | IC50 (OVCAR-3): 3.28 µM | GI50 (OVCAR-3; read-out: GI50): 3.28 µM | CC50 (OVCAR-3; [9]): > 100 µM | TGI (OVCAR-3; read-out: TGI): 25.7 µM | GI50 (OVCAR-3; read-out: pGI50 (converted)): 3.31 µM | CC50 (OVCAR-3; [10]): > 100 µM | TGI (OVCAR-3; read-out: pTGI (converted)): 10.2 µM | growth at 0.01 µM (MDA-MB-468): 91% | GI50 (IGROV-1; read-out: GI50): 7.96 µM | CC50 (IGROV-1; [9]): > 100 µM | TGI (IGROV-1; read-out: TGI): > 100 µM | GI50 (IGROV-1; read-out: pGI50 (converted)): 7.94 µM | CC50 (IGROV-1; [10]): > 100 µM | TGI (IGROV-1; read-out: pTGI (converted)): > 100 µM | growth at 0.01 µM (BT-549 [5]): 95% | growth at 1 µM (RXF 393 [6]): 78% | growth at 1 µM (SF-539): 91% | GI50 (NCI/ADR-RES; read-out: GI50): 4.58 µM | CC50 (NCI/ADR-RES; [9]): > 100 µM | TGI (NCI/ADR-RES; read-out: TGI): > 100 µM | GI50 (NCI/ADR-RES; read-out: pGI50 (converted)): 4.57 µM | CC50 (NCI/ADR-RES; [10]): > 100 µM | TGI (NCI/ADR-RES; read-out: pTGI (converted)): > 100 µM | growth at 100 µM (HCC 2998): -34% | IC50 (PC-3): 2.28 µM | GI50 (PC-3; read-out: GI50): 2.28 µM | CC50 (PC-3; [9]): > 100 µM | TGI (PC-3; read-out: TGI): 22.5 µM | GI50 (PC-3; read-out: pGI50 (converted)): 2.29 µM | CC50 (PC-3; [10]): > 100 µM | TGI (PC-3; read-out: pTGI (converted)): 28.2 µM | GI50 (A498 [7]; read-out: GI50): 4.75 µM | CC50 (A498 [7]; [9]): > 100 µM | TGI (A498 [7]; read-out: TGI): 90.8 µM | GI50 (A498 [7]; read-out: pGI50 (converted)): 4.79 µM | CC50 (A498 [7]; [10]): > 100 µM | TGI (A498 [7]; read-out: pTGI (converted)): 91.2 µM | growth at 100 µM (SN12C): 17% | GI50 (786-0 [8]; read-out: GI50): 3.12 µM | CC50 (786-0 [8]; [9]): > 100 µM | TGI (786-0 [8]; read-out: TGI): 21.1 µM | GI50 (786-0 [8]; read-out: pGI50 (converted)): 3.09 µM | CC50 (786-0 [8]; [10]): > 100 µM | TGI (786-0 [8]; read-out: pTGI (converted)): 20.9 µM
